Where “and” joins values, the source holds several entries; their conditions need not be identical. Equal entries are not always repeated.
Key:
[1] = test system: A. baumannii (ATCC 19606); test: Micro dilution broth checkerboard; assay type: cell-based, Acinetobacter baumannii; conditions: wells at growth–no growth interface
[2] = in vivo; cited from earlier work
[3] = test system: MDR-A. baumannii ATCC BAA-1800; test: MIC/MBC broth dilution, MDR A. baumannii; assay type: cell-based, Acinetobacter baumannii; conditions: for MBC / MIC: MDR-A. baumannii ATCC BAA-1800, broth dilution
A. baumannii (ATCC19606) [4] = test: Spontaneous mutation frequency on agar; assay type: cell-based, Acinetobacter baumannii; conditions: 4xMIC concentration
A. baumannii (ATCC19606) [5] = test: Mouse septicemia model, survival; assay type: in vivo, C57BL/6 mice
Caco-2 permeability = assay type: in vitro ADME; conditions: human
Vero cells = test: Cytotoxicity; assay type: cell-based, monkey; conditions: MTT assay
A. baumannii ATCC 19606 = test: MIC/MBC broth dilution, drug sensitive A. baumannii; assay type: cell-based, Acinetobacter baumannii; conditions: for MBC: kills 99.9% of bacteria
[6] = combination of valnemulin and doxycycline

Compound | MIC CA and CB (concentrations of A and B in combination) [1, 6] | MBC [3] | MIC [3] | MIC (A. baumannii ATCC 19606) | MBC (A. baumannii ATCC 19606) | further results
C=C[C@]1(C)C[C@@H](OC(=O)CSC(C)(C)CNC(=O)[C@H](N)C(C)C)[C@]2(C)[C@H](C)CC[C@]3(CCC(=O)[C@H]32)[C@@H](C)[C@@H]1O [Valnemulin, valnemulin] | 0.78 µg/mL and 1.56 µg/mL |  |  |  |  | half-lives in plasma [2]: 1.3 to 2.9 h
C=C[C@]1(C)C[C@@H](OC(=O)CSC(C)(C)CNC(=O)[C@H](N)C(C)C)[C@]2(C)[C@H](C)CC[C@]3(CC[C@@H](O)[C@H]32)[C@@H](C)[C@@H]1O [compound 1, (3R,3aR,4R,5R,7S,8S,9R,9aS,12R)-3,8-dihydroxy-4,7,9,12-tetramethyl-7-vinyldecahydro-4,9a-propanocyclopenta[8]annulen-5-yl 2-((1-((R)-2-amino-3-methylbutanamido)-2-methylpropan-2-yl)thio)acetate] |  |  |  |  |  | concentrations at which the MDR strain was killed ([3]; A. baumannii ATCC BAA-1800): 6.25 to 12.5 µg/mL; spontaneous resistance mutation frequency (A. baumannii (ATCC19606) [4]): 1×10^−8; effectiveness in mouse septicemia model (A. baumannii (ATCC19606) [5]; IP single dose, 2 to 60 mg/kg): showed effectiveness in the same in vivo studies, but required higher dosage than that with 1-Dox35/1; Papp (Caco-2 permeability): > 1 ×10⁻⁶ cm/s
colistin |  | 25.0 µg/mL | >12.5 µg/mL | 3.13 µg/mL | 6.25 µg/mL | Cytotoxicity IC50 (Vero cells): > 200 µg/mL
C[C@H]1c2cccc(O)c2C(=O)C2=C(O)[C@]3(O)C(=O)C(C(N)=O)=C(O)[C@@H](N(C)C)[C@@H]3[C@@H](O)[C@@H]21.O [Doxycycline, doxycycline] | 0.025 µg/mL and 0.05 µg/mL |  |  |  |  | MIC CA and CB (concentrations of A and B in combination) ([1]; combination of 1 and doxycycline): 0.025 µg/mL and 0.05 µg/mL
(3R,3aR,4R,5R,7S,8S,9R,9aS,12R)-3,8-dihydroxy-4,7,9,12-tetramethyl-7-vinyldecahydro-4,9a-propanocyclopenta[8]annulen-5-yl 2-((1-((R)-2-((S)-2,5-diaminopentanamido)-3-methylbutanamido)-2-methylpropan-2-yl)thio)acetate [compound 2] |  | >12.5 µg/mL | 3.13 µg/mL | 3.13 µg/mL | >12.5 µg/mL | 
NC[C@H]1O[C@H](O[C@H]2[C@H](O)[C@@H](O[C@H]3O[C@H](CO)[C@@H](O)[C@H](N)[C@H]3O)[C@H](N)C[C@@H]2N)[C@H](N)C[C@@H]1O [Tobramycin, tobramycin] |  |  |  |  |  | survival of mice (A. baumannii (ATCC19606) [5]; 6.0 mg/kg dose IP): survived the mice

From article PMC5469366 (Journal of medicinal chemistry, 2017)
